The supplement of paper PMC11451515

Test system: P12-Ichikawa
Experiment: cell viability relative to DMSO control; higher = less cytotoxic
Conditions: 48 h
Outline: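 Viability was expressed as a per-plate percentage of DMSO wells, with cell-free wells as background. Leukemia cells (NOMO1 or SEM at 500 cells/well, P12-Ichikawa at 1000 cells/well) were adapted for at least four passages in each medium and seeded in 1536-well plates (5 μl). Library compounds in DMSO were pin-dosed over an 11-point threefold series from 47 μM to 0.79 nM, and CellTiter-Glo One luminescence was read after 48 h at 37°C.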

[1] = HPLM + 10% dialyzed FBS, 0.000781 µM
[2] = HPLM + 10% dialyzed FBS, 0.00234 µM
[3] = HPLM + 10% dialyzed FBS, 0.00702 µM
[4] = HPLM + 10% dialyzed FBS, 0.0211 µM
[5] = HPLM + 10% dialyzed FBS, 0.0632 µM
[6] = HPLM + 10% dialyzed FBS, 0.19 µM
[7] = HPLM + 10% dialyzed FBS, 0.569 µM
[8] = HPLM + 10% dialyzed FBS, 1.71 µM
[9] = HPLM + 10% dialyzed FBS, 5.12 µM
[10] = HPLM + 10% dialyzed FBS, 15.4 µM
[11] = HPLM + 10% dialyzed FBS, 46.1 µM
[12] = RPMI 5 mM glucose + 10% FBS, 0.000781 µM
[13] = RPMI 5 mM glucose + 10% FBS, 0.00234 µM
[14] = RPMI 5 mM glucose + 10% FBS, 0.00702 µM
[15] = RPMI 5 mM glucose + 10% FBS, 0.0211 µM
[16] = RPMI 5 mM glucose + 10% FBS, 0.0632 µM
[17] = RPMI 5 mM glucose + 10% FBS, 0.19 µM
[18] = RPMI 5 mM glucose + 10% FBS, 0.569 µM
[19] = RPMI 5 mM glucose + 10% FBS, 1.71 µM
[20] = RPMI 5 mM glucose + 10% FBS, 5.12 µM
[21] = RPMI 5 mM glucose + 10% FBS, 15.4 µM
[22] = RPMI 5 mM glucose + 10% FBS, 46.1 µM
[23] = RPMI 5 mM glucose + 10% dialyzed FBS, 0.000781 µM
[24] = RPMI 5 mM glucose + 10% dialyzed FBS, 0.00234 µM
[25] = RPMI 5 mM glucose + 10% dialyzed FBS, 0.00702 µM
[26] = RPMI 5 mM glucose + 10% dialyzed FBS, 0.0211 µM
[27] = RPMI 5 mM glucose + 10% dialyzed FBS, 0.0632 µM
[28] = RPMI 5 mM glucose + 10% dialyzed FBS, 0.19 µM
[29] = RPMI 5 mM glucose + 10% dialyzed FBS, 0.569 µM
[30] = RPMI 5 mM glucose + 10% dialyzed FBS, 1.71 µM
[31] = RPMI 5 mM glucose + 10% dialyzed FBS, 5.12 µM
[32] = RPMI 5 mM glucose + 10% dialyzed FBS, 15.4 µM
[33] = RPMI 5 mM glucose + 10% dialyzed FBS, 46.1 µM

In the case of `CC(C)(N)c1ccc(-c2nc3ccccc3nc2-c2ccccc2)cc1`, the cell viability [1] is reported as 110%, the cell viability [2] is reported as 114% and the cell viability [3] is reported as 108%. It also gave a cell viability [4] of 65.8%, a cell viability [5] of 23.2% and a cell viability [6] of 10.3%. The cell viability [7] was 7.18%, the cell viability [8] was 5.6% and the cell viability [9] was 5.46%. The cell viability [10] was 4.51%, the cell viability [11] was 4.37% and the cell viability [12] was 96.3%. For the same molecule, the cell viability [13] was 120%, the cell viability [14] was 109% and the cell viability [15] was 111%. For the same molecule, the cell viability [16] was 84.4%, the cell viability [17] was 18.8% and the cell viability [18] was 10.2%. It also gave a cell viability [19] of 6.88%, a cell viability [20] of 6.89% and a cell viability [21] of 4.41%. It also gave a cell viability [22] of 3.11%, a cell viability [23] of 108% and a cell viability [24] of 117%. The cell viability [25] was 111%, the cell viability [26] was 114% and the cell viability [27] was 68.8%. For the same molecule, the cell viability [28] was 22.3%, the cell viability [29] was 13.9% and the cell viability [30] was 8.23%. The cell viability [31] was 7.24%, the cell viability [32] was 7.26% and the cell viability [33] was 4.8%.
Molecule `OC(=O)\C1=C\N(C2CC2)C3=CC(=C(F)C=C3C1=O)N4CCNCC4` has a cell viability [1] of 110%, a cell viability [2] of 114% and a cell viability [3] of 114%. It also gave a cell viability [4] of 111%, a cell viability [5] of 112% and a cell viability [6] of 112%. For the same molecule, the cell viability [7] was 115%, the cell viability [8] was 113% and the cell viability [9] was 96.6%. It also gave a cell viability [10] of 91.9%, a cell viability [11] of 68.7% and a cell viability [12] of 102%. It also gave a cell viability [13] of 104%, a cell viability [14] of 115% and a cell viability [15] of 108%. It also gave a cell viability [16] of 112%, a cell viability [17] of 113% and a cell viability [18] of 115%. It also gave a cell viability [19] of 100%, a cell viability [20] of 104% and a cell viability [21] of 92.3%. It also gave a cell viability [22] of 63.9%, a cell viability [23] of 99.4% and a cell viability [24] of 106%. The cell viability [25] was 113%, the cell viability [26] was 111% and the cell viability [27] was 112%. For the same molecule, the cell viability [28] was 108%, the cell viability [29] was 113% and the cell viability [30] was 114%. The cell viability [31] was 99.4%, the cell viability [32] was 90.5% and the cell viability [33] was 64.7%.
In the case of `CC(=O)SC[C@@H](C)C(=O)N1CCC[C@H]1C(=O)N[C@@H](Cc1ccccc1)C(=O)O`, the cell viability [1] is reported as 99.5%, the cell viability [2] is reported as 108% and the cell viability [3] is reported as 108%. It also gave a cell viability [4] of 104%, a cell viability [5] of 113% and a cell viability [6] of 107%. For the same molecule, the cell viability [7] was 106%, the cell viability [8] was 104% and the cell viability [9] was 102%. The cell viability [10] was 101%, the cell viability [11] was 94.1% and the cell viability [12] was 103%. The cell viability [13] was 93.2%, the cell viability [14] was 97.6% and the cell viability [15] was 100%. For the same molecule, the cell viability [16] was 102%, the cell viability [17] was 97.8% and the cell viability [18] was 102%. For the same molecule, the cell viability [19] was 96.7%, the cell viability [20] was 98.4% and the cell viability [21] was 91.3%. For the same molecule, the cell viability [22] was 90%, the cell viability [23] was 99.7% and the cell viability [24] was 101%. It also gave a cell viability [25] of 102%, a cell viability [26] of 101% and a cell viability [27] of 99.7%. It also gave a cell viability [28] of 100%, a cell viability [29] of 95.4% and a cell viability [30] of 101%. It also gave a cell viability [31] of 92.2%, a cell viability [32] of 90.8% and a cell viability [33] of 85.2%.
For `Cc1c(N)nc([C@H](CC(N)=O)NC[C@@H](N)C(N)=O)nc1C(=O)N[C@H](C(=O)N[C@@H](C)[C@H](O)[C@@H](C)C(=O)N[C@@H](C(=O)NCCc1nc(-c2nc(C(=O)NCCC[S+](C)C)cs2)cs1)[C@@H](C)O)C(O[C@H]1O[C@H](CO)[C@H](O)[C@@H](O)[C@H]1O[C@H]1O[C@H](CO)[C@@H](O)[C@H](OC(N)=O)[C@@H]1O)c1c[nH]cn1` (stereo partly specified), the cell viability [1] was 112%, the cell viability [2] was 114% and the cell viability [3] was 108%. For the same molecule, the cell viability [4] was 108%, the cell viability [5] was 111% and the cell viability [6] was 120%. It also gave a cell viability [7] of 110%, a cell viability [8] of 96.6% and a cell viability [9] of 78%. It also gave a cell viability [10] of 28.3%, a cell viability [11] of 40.9% and a cell viability [12] of 103%. For the same molecule, the cell viability [13] was 102%, the cell viability [14] was 112% and the cell viability [15] was 114%. For the same molecule, the cell viability [16] was 104%, the cell viability [17] was 109% and the cell viability [18] was 105%. The cell viability [19] was 67.3%, the cell viability [20] was 51.5% and the cell viability [21] was 21.4%. The cell viability [22] was 37%, the cell viability [23] was 102% and the cell viability [24] was 103%. For the same molecule, the cell viability [25] was 108%, the cell viability [26] was 103% and the cell viability [27] was 105%. It also gave a cell viability [28] of 109%, a cell viability [29] of 107% and a cell viability [30] of 91.6%. It also gave a cell viability [31] of 82.1%, a cell viability [32] of 37.2% and a cell viability [33] of 44.6%.
`CCc1ccc(OCc2ccccc2C(=O)Nc2ccc3nc(C)cc(N)c3c2)cc1` gave a cell viability [1] of 95.7%, a cell viability [2] of 107% and a cell viability [3] of 110%. The cell viability [4] was 114%, the cell viability [5] was 118% and the cell viability [6] was 116%. The cell viability [7] was 113%, the cell viability [8] was 121% and the cell viability [9] was 110%. The cell viability [10] was 6.84%, the cell viability [11] was 4.54% and the cell viability [12] was 88.2%. For the same molecule, the cell viability [13] was 107%, the cell viability [14] was 112% and the cell viability [15] was 113%. For the same molecule, the cell viability [16] was 108%, the cell viability [17] was 114% and the cell viability [18] was 118%. It also gave a cell viability [19] of 123%, a cell viability [20] of 108% and a cell viability [21] of 41.3%. It also gave a cell viability [22] of 4.15%, a cell viability [23] of 89.3% and a cell viability [24] of 103%. It also gave a cell viability [25] of 108%, a cell viability [26] of 111% and a cell viability [27] of 104%. The cell viability [28] was 110%, the cell viability [29] was 112% and the cell viability [30] was 121%. The cell viability [31] was 103%, the cell viability [32] was 47.5% and the cell viability [33] was 4.84%.
`C=CC(=O)Nc1cc2c(Nc3ccc(F)c(Cl)c3)ncnc2cc1C#CC(C)(C)N1CCN(C)CC1` was tested, and the cell viability [1] was 103%, the cell viability [2] was 108% and the cell viability [3] was 99.5%. The cell viability [4] was 97.4%, the cell viability [5] was 102% and the cell viability [6] was 106%. The cell viability [7] was 107%, the cell viability [8] was 102% and the cell viability [9] was 58.9%. The cell viability [10] was 5.08%, the cell viability [11] was 23.4% and the cell viability [12] was 95.6%. It also gave a cell viability [13] of 105%, a cell viability [14] of 101% and a cell viability [15] of 102%. For the same molecule, the cell viability [16] was 112%, the cell viability [17] was 106% and the cell viability [18] was 107%. It also gave a cell viability [19] of 106%, a cell viability [20] of 65.7% and a cell viability [21] of 5.56%. It also gave a cell viability [22] of 15.3%, a cell viability [23] of 97.4% and a cell viability [24] of 101%. The cell viability [25] was 96.1%, the cell viability [26] was 101% and the cell viability [27] was 101%. For the same molecule, the cell viability [28] was 98.2%, the cell viability [29] was 96.1% and the cell viability [30] was 95.7%. It also gave a cell viability [31] of 51%, a cell viability [32] of 5.48% and a cell viability [33] of 12.7%.
With `Nc1ccc(C(=O)c2cc3c(ccc4ccccc43)[nH]2)cc1` the cell viability [1] was 121%, the cell viability [2] was 124% and the cell viability [3] was 122%. It also gave a cell viability [4] of 118%, a cell viability [5] of 120% and a cell viability [6] of 109%. It also gave a cell viability [7] of 96.4%, a cell viability [8] of 81.4% and a cell viability [9] of 31.1%. The cell viability [10] was 10.6%, the cell viability [11] was 5.96% and the cell viability [12] was 118%. The cell viability [13] was 112%, the cell viability [14] was 115% and the cell viability [15] was 118%. The cell viability [16] was 112%, the cell viability [17] was 108% and the cell viability [18] was 102%. It also gave a cell viability [19] of 77.5%, a cell viability [20] of 40.7% and a cell viability [21] of 12.9%. For the same molecule, the cell viability [22] was 8.36%, the cell viability [23] was 118% and the cell viability [24] was 115%. It also gave a cell viability [25] of 117%, a cell viability [26] of 102% and a cell viability [27] of 116%. It also gave a cell viability [28] of 111%, a cell viability [29] of 91% and a cell viability [30] of 74.9%. For the same molecule, the cell viability [31] was 56.6%, the cell viability [32] was 13.7% and the cell viability [33] was 5.99%.
